The text below walks through data of patent US20050197350A1, “Novel quinoline, tetrahydroquinazoline, and pyrimidine derivatives and methods of treatment related to the use thereof” (TAISHO PHARMACEUTICAL CO., LTD., priority 2003, published 2005).

For the assay, the system named is MCH receptors. Kind of assay: MCH receptor activity class (method not given).
Where [1] appears, read: class by percent of control at 10^-7 M or IC50.
Setting [2] is: class by percent of control at 10^−7 M or IC50.
The mark [3] stands for this setting: MCH receptor, class by percent of control at 10^-7 M or IC50.
Setting [4] is: activity class per percent of control at 10^-7 M or IC50.
Where [5] appears, read: class 1-3 by percent of control at 10^-7 M or IC50.
The mark [6] stands for this setting: activity class 1-3: percent of control at 10^-7 M or IC50.

Molecules are shown by their SMILES.

Turning to `CCOC(=O)c1cccc(NC(=O)N[C@H]2CC[C@@H](Nc3cc(N(C)C)c4ccccc4n3)CC2)c1` [compound 2127], the class under setting [1] is given as 3 (Class 3 The value of percent of control at 10^−7 M was more than 60% or the value of IC50 was more than 200 nM.).

Consider `Cc1cccc(C(C)C)c1NC(=S)N[C@H]1CC[C@@H](Nc2cc(N(C)C)c3ccccc3n2)CC1` [compound 2303], for which the class (MCH receptor activity class 1-3 (percent of control at 10^-7 M or IC50)) is listed as 3 (Class 3 The value of percent of control at 10^−7 M was more than 60% or the value of IC50 was more than 200 nM.).

Turning to `C[C@@H](NC(=O)c1ccccc1C(=O)N[C@H]1CC[C@@H](Nc2cc(N(C)C)c3ccccc3n2)CC1)c1cccc2ccccc12` [compound 737], the class under setting [1] is 3 (Class 3 The value of percent of control at 10^−7 M was more than 60% or the value of IC50 was more than 200 nM.).

For `Cc1cnc(N[C@H]2CC[C@@H](C(=O)NC(C)c3ccc(Br)cc3)CC2)nc1N(C)C` (relative stereo) [compound 2779], the class under setting [2] is given as 1 (Class 1: The value of percent of control at 10^−7 M was less than 40% or the value of IC50 was less than 50 nM.).

Regarding `CN(C)c1cc(N[C@H]2CC[C@@H](CNC(=O)c3cc(Cl)sc3Cl)CC2)nc2ccccc12` [compound 210], the class under setting [3] is recorded as 3 (Class 3 The value of percent of control at 10^−7 M was more than 60% or the value of IC50 was more than 200 nM.).

In the case of `CN(C)c1nc(N[C@H]2CC[C@@H](NC(=O)c3ccccc3Cc3ccccc3)CC2)nc2c1CCCC2` [compound 961], the class under setting [1] is 2 (Class 2: The value of percent of control at 10^−7 M was from 40% to 60% or the value of IC′50 was from 50 nM to 200 nM.).

For the molecule `CN(C)c1ccnc(N[C@H]2CC[C@@H](CNCc3cc(Cl)cc(Br)c3O)CC2)n1` [compound 1283], the class under setting [1] is listed as 3 (Class 3 The value of percent of control at 10^−7 M was more than 60% or the value of IC50 was more than 200 nM.).

Consider `CN(C)c1cc(N[C@H]2CC[C@@H](CNCc3ccc(O)cc3Cl)CC2)nc2ccccc12` [compound 1146], for which the class under setting [4] is 3 (Class 3 The value of percent of control at 10^−7 M was more than 60% or the value of IC50 was more than 200 nM.).

As to `CSc1ccc(Cl)c(C(=O)N[C@H]2CC[C@@H](Nc3cc(N(C)C)c4ccccc4n3)CC2)c1` [compound 781], the class under setting [1] was 3 (Class 3 The value of percent of control at 10^−7 M was more than 60% or the value of IC50 was more than 200 nM.).

Consider `Cc1ccc(C(=O)N[C@H]2CC[C@@H](Nc3nccc(N(C)C)n3)CC2)c(F)c1F` [compound 278], for which the class under setting [1] is on record as 3 (Class 3 The value of percent of control at 10^−7 M was more than 60% or the value of IC50 was more than 200 nM.).

Consider `CC(C)c1cccc(C(C)C)c1NC(=S)N[C@H]1CC[C@@H](Nc2nc3c(c(N(C)C)n2)CCCC3)CC1` [compound 2002], for which, under setting [3], the class is 3 (Class 3 The value of percent of control at 10^−7 M was more than 60% or the value of IC50 was more than 200 nM.).

On to `Cc1ccc(CNC[C@H]2CC[C@@H](Nc3nc4c(c(N(C)C)n3)CCCC4)CC2)cc1` [compound 1428], for which, under setting [1], the class was 3 (Class 3 The value of percent of control at 10^−7 M was more than 60% or the value of IC50 was more than 200 nM.).

As to `CN(C)c1nc(N[C@H]2CC[C@@H](NC(=O)c3ccc(C(F)(F)F)c(F)c3)CC2)nc2c1CCCC2` [compound 1048], under setting [4], the class is 3 (Class 3 The value of percent of control at 10^−7 M was more than 60% or the value of IC50 was more than 200 nM.).

With `COc1ccccc1/C=C/CN[C@H]1CC[C@@H](Nc2nc3c(c(N(C)C)n2)CCCC3)CC1` [compound 1354], under setting [1], the class is 3 (Class 3 The value of percent of control at 10^−7 M was more than 60% or the value of IC50 was more than 200 nM.).

On to `COc1ccc(CC(=O)N[C@H]2CC[C@@H](Nc3nc4c(c(N(C)C)n3)CCCC4)CC2)cc1OC` [compound 559], for which the class under setting [5] is recorded as 3 (Class 3 The value of percent of control at 10^−7 M was more than 60% or the value of IC50 was more than 200 nM.).

With `Cc1cccc(N(CCC#N)CCN[C@H]2CC[C@@H](Nc3nccc(N(C)C)n3)CC2)c1` [compound 1523], the class under setting [6] is reported as 3 (Class 3 The value of percent of control at 10^−7 M was more than 60% or the value of IC50 was more than 200 nM.).

Take `CN(C)c1cc(N[C@H]2CC[C@@H](NCC(c3ccc(Cl)cc3)c3ccc(Cl)cc3)CC2)nc2ccccc12` [compound 1460]: under setting [1], the class is 3 (Class 3 The value of percent of control at 10^−7 M was more than 60% or the value of IC50 was more than 200 nM.).

Regarding `Cc1cc(N(C)C)nc(NC[C@H]2CC[C@@H](NC(=O)c3ccc(C#N)cc3)CC2)n1` [compound 2743], the class under setting [2] was 3 (Class 3 The value of percent of control at 10^−7 M was more than 60% or the value of IC50 was more than 200 nM.).

As for `CCC(C(=O)N[C@H]1CC[C@@H](Nc2cc(N(C)C)c3ccccc3n2)CC1)c1ccccc1` (relative stereo) [compound 66], under setting [3], the class is recorded as 3 (Class 3 The value of percent of control at 10^−7 M was more than 60% or the value of IC50 was more than 200 nM.).

As to `COc1cc(C(=O)N[C@H]2CC[C@@H](Nc3nc(C)cc(N(C)C)n3)CC2)cc(OC)c1OC` [compound 2991, N-(cis-4-{[4-(dimethylamino)-6-methylpyrimidin-2-yl]amino}cyclohexyl)-3,4,5-trimethoxybenzamide], the class under setting [2] is listed as 1 (Class 1: The value of percent of control at 10^−7 M was less than 40% or the value of IC50 was less than 50 nM.).

On to `Cc1cc(C)c(CCNC[C@H]2CC[C@@H](Nc3nccc(N(C)C)n3)CC2)c(C)c1` [compound 1527], for which the class under setting [6] is listed as 3 (Class 3 The value of percent of control at 10^−7 M was more than 60% or the value of IC50 was more than 200 nM.).

As to `CCCc1c(CNC[C@H]2CC[C@@H](Nc3nc4c(c(N(C)C)n3)CCCC4)CC2)cnn1-c1ccc(Cl)cc1` [compound 1511], the class under setting [1] is given as 1 (Class 1: The value of percent of control at 10^−7 M was less than 40% or the value of IC50 was less than 50 nM.).

As for `CN(C)c1nc(N[C@H]2CC[C@@H](CNCc3ccccc3C#N)CC2)nc2c1CCCC2` [compound 1389], the class under setting [1] is recorded as 3 (Class 3 The value of percent of control at 10^−7 M was more than 60% or the value of IC50 was more than 200 nM.).

Take `CN(C)c1cc(N[C@H]2CC[C@@H](NC(=O)CCc3ccc(Cl)c(Cl)c3)CC2)nc2ccccc12` [compound 698]: the class under setting [1] is 3 (Class 3 The value of percent of control at 10^−7 M was more than 60% or the value of IC50 was more than 200 nM.).

As for `CCOc1ccc(CNC[C@H]2CC[C@@H](Nc3nccc(N(C)C)n3)CC2)c(OCC)c1` [compound 1291], the class under setting [1] was 2 (Class 2: The value of percent of control at 10^−7 M was from 40% to 60% or the value of IC′50 was from 50 nM to 200 nM.).

For `CN(C)c1nc(N[C@H]2CC[C@@H](CNC(=O)c3ccc(I)cc3)CC2)nc2c1CCCC2` [compound 603], the class under setting [1] is listed as 3 (Class 3 The value of percent of control at 10^−7 M was more than 60% or the value of IC50 was more than 200 nM.).

As for `CN(C)c1ccnc(N[C@H]2CC[C@@H](CNC(=O)c3c(F)ccc(F)c3F)CC2)n1` [compound 445], the class under setting [5] was 3 (Class 3 The value of percent of control at 10^−7 M was more than 60% or the value of IC50 was more than 200 nM.).

`CN(C)c1ccnc(N[C@H]2CC[C@@H](NC(=O)c3cc(F)c(F)c(F)c3F)CC2)n1` [compound 346]: the class under setting [1] is listed as 3 (Class 3 The value of percent of control at 10^−7 M was more than 60% or the value of IC50 was more than 200 nM.).

Take `CN(C)c1ccnc(N[C@H]2CC[C@@H](CNC(=O)c3c(F)ccc(F)c3Cl)CC2)n1` [compound 454]: under setting [5], the class is 3 (Class 3 The value of percent of control at 10^−7 M was more than 60% or the value of IC50 was more than 200 nM.).

Turning to `CSc1ccc(Cl)c(C(=O)N[C@H]2CC[C@@H](Nc3nc4c(c(N(C)C)n3)CCCC4)CC2)c1` [compound 1056], the class under setting [4] is 3 (Class 3 The value of percent of control at 10^−7 M was more than 60% or the value of IC50 was more than 200 nM.).

Turning to `Cc1ccc(CNC[C@H]2CC[C@@H](Nc3nccc(N(C)C)n3)CC2)cc1` [compound 1307], the class under setting [1] was 3 (Class 3 The value of percent of control at 10^−7 M was more than 60% or the value of IC50 was more than 200 nM.).

Consider `CN(C)c1cc(N[C@H]2CC[C@@H](CNCc3c[nH]c4ccc(Br)cc34)CC2)nc2ccccc12` [compound 1130], for which the class under setting [4] is given as 2 (Class 2: The value of percent of control at 10^−7 M was from 40% to 60% or the value of IC′50 was from 50 nM to 200 nM.).

As to `CCCNC(=S)N[C@H]1CC[C@@H](Nc2nc3c(c(N(C)C)n2)CCCC3)CC1` [compound 1956], the class under setting [3] is 3 (Class 3 The value of percent of control at 10^−7 M was more than 60% or the value of IC50 was more than 200 nM.).

Turning to `CCOc1c(Br)cc(Br)cc1CNC[C@H]1CC[C@@H](Nc2nc3c(c(N(C)C)n2)CCCC3)CC1` [compound 1446], the class under setting [1] is 3 (Class 3 The value of percent of control at 10^−7 M was more than 60% or the value of IC50 was more than 200 nM.).

On to `COc1ccc(OC)c(CC(=O)NC[C@H]2CC[C@@H](Nc3nccc(N(C)C)n3)CC2)c1` [compound 380], for which the class under setting [1] is on record as 3 (Class 3 The value of percent of control at 10^−7 M was more than 60% or the value of IC50 was more than 200 nM.).

Turning to `Cc1ccc(CNC[C@H]2CC[C@@H](Nc3nccc(N(C)C)n3)CC2)s1` [compound 1301], under setting [1], the class is on record as 3 (Class 3 The value of percent of control at 10^−7 M was more than 60% or the value of IC50 was more than 200 nM.).

Turning to `Cc1nc(N[C@H]2CC[C@@H](NC(=O)c3cncc(Br)c3)CC2)nc(N(C)C)c1C` [compound 2857, 5-bromo-N-(cis-4-{[4-(dimethylamino)-5,6-dimethylpyrimidin-2-yl]amino}cyclohexyl)nicotinamide], the class under setting [2] is given as 1 (Class 1: The value of percent of control at 10^−7 M was less than 40% or the value of IC50 was less than 50 nM.).

Turning to `Cc1cnc(N[C@H]2CC[C@@H](NC(=O)c3cc(F)ccc3F)CC2)nc1N(C)C` [compound 2902, N-(cis-4-{[4-(dimethylamino)-5-methylpyrimidin-2-yl]amino}cyclohexyl)-2,5-difluorobenzamide], the class under setting [2] was 1 (Class 1: The value of percent of control at 10^−7 M was less than 40% or the value of IC50 was less than 50 nM.).
